Measured values reported in PubChem BioAssay (NCI).
“And” between values parts separate entries of the source, which are not always exact repeats. Identical values can stand only once.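 The compound was tested at five concentrations on cells cultured in 96-well plates, with a 48-hour exposure period. GI50: concentration for 50% inhibition of growth. TGI denotes the concentration required for complete inhibition of growth.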

Legend:
Test in all cases: inhibition of tumour cell growth, NCI panel, 48 h
HT29 colon = test system: HT29 colon
IGROV1 ovarian = test system: IGROV1 ovarian
MCF7 breast = test system: MCF7 breast
OVCAR-5 ovarian = test system: OVCAR-5 ovarian
PC-3 prostate = test system: PC-3 prostate
RPMI-8226 leukemia = test system: RPMI-8226 leukemia
SN12C renal = test system: SN12C renal
SNB-75 CNS = test system: SNB-75 CNS
SW-620 colon = test system: SW-620 colon
UACC-62 melanoma = test system: UACC-62 melanoma

Row | Compound | TGI (HT29 colon) | TGI (IGROV1 ovarian) | TGI (MCF7 breast) [µM] | TGI (OVCAR-5 ovarian) | TGI (PC-3 prostate) | TGI (RPMI-8226 leukemia) | TGI (SN12C renal) | TGI (SNB-75 CNS) | TGI (SW-620 colon) | TGI (UACC-62 melanoma) | GI50 (HT29 colon) [µM] | GI50 (IGROV1 ovarian) | GI50 (MCF7 breast) [µM] | GI50 (OVCAR-5 ovarian) | GI50 (PC-3 prostate) | GI50 (RPMI-8226 leukemia) [µM] | GI50 (SN12C renal) [µM] | GI50 (SNB-75 CNS) [µM] | GI50 (SW-620 colon) [µM] | GI50 (UACC-62 melanoma)
1 | O=S(=O)(c1cccc(C(F)(F)F)c1)N1c2ccccc2-n2cccc2C1c1cccnc1 (stereo unspecified) | > 58 µM | > 100 µM | > 76 | > 75.1 µM | > 52.6 µM | > 57.7 µM | > 62.3 µM | > 100 µM | > 60.4 µM | > 59.5 µM | – | – | – | – | – | – | – | – | – | –
2 | CS(=O)(=O)c1nccc(-c2c(-c3cccc(OCc4ccc(F)cc4)c3)nc3sccn23)n1 | > 100 µM | > 100 µM | > 100 | > 100 µM | > 28 µM | > 51 µM | > 100 µM | > 83.1 µM | > 100 µM | > 100 µM | 53.9 | 11.2 µM | 8.31 | > 100 µM | 4.62 µM | 5.16 | > 56.6 | > 39.5 | 5.32 | 17.5 µM
3 | COc1ccccc1-c1cc2c3c(nc4ccccc42)C(=O)c2cccnc2-c3n1 | 29.9 µM | 18.1 µM | 3.95 | 34 µM | 38.2 µM | > 100 µM | 30.1 µM | 22.6 µM | 27.3 µM | 36.7 µM | 15.3 | 3.78 µM | 1.44 | 15 µM | 14.9 µM | 34.6 | 14.5 | 8.89 | 9.58 | 16.4 µM
4 | COc1ccc(OC)c(/C=C/[N+](=O)[O-])c1 | 6.33 µM and 7.41 µM | 6.97 µM and 8.79 µM | 8.64 | 4.45 µM and 9.01 µM | 7.37 µM and 27.9 µM | 4.42 µM and 4.74 µM | 7.19 µM and 7.69 µM | 12.9 µM and 11.8 µM | 16.9 µM and 5.39 µM | 5.34 µM and 12.1 µM | – | 2 µM and 3.79 µM | – | 2.11 µM and 4.32 µM | 2.53 µM and 12.4 µM | 1.74 | – | 5.3 | – | 1.98 µM and 4.37 µM
5 | C=CC1CC12C(=O)C1OC2(C)C2C(=O)c3ccccc3C(=O)C12 (stereo unspecified) | > 100 µM | > 100 µM | > 76.1 | > 88.5 µM | > 100 µM | 99.2 µM | > 100 µM | > 76.1 µM | > 100 µM | > 100 µM | > 61.6 | > 69.3 µM | 42.9 | > 54.7 µM | 54.7 µM | 28.2 | > 56.3 | > 37.4 | 45.3 | 35.1 µM
6 | COc1ccc(C2C3=C(NC(=O)C2C#N)c2ccc4ccccc4c2OCC3)cc1 (stereo unspecified) | > 100 µM | > 100 µM | > 100 | > 100 µM | > 100 µM | > 100 µM | 56.5 µM | 69.1 µM | > 100 µM | 45.5 µM | > 100 | > 100 µM | > 100 | > 100 µM | 86.9 µM | > 100 | 23.9 | 21.9 | > 100 | 19 µM
